Assay results published in PMC8286840, “Identifying SARS-CoV-2 antiviral compounds by screening for small molecule inhibitors of Nsp3 papain-like protease” (Biochemical Journal, 2021).
Where a name gives a salt, the structure may show the parent alone. Read-outs that look alike come from different tables or passages of the source. Where a SMILES comes first, the peptide text is derived from it. [ ]: non-standard residue; d: D form. dPhe(4-Cl) = N[C@H](Cc1ccc(Cl)cc1)C(=O)O; d2Nal = N[C@H](Cc1ccc2ccccc2c1)C(=O)O; Lys(iPr) = CC(C)NCCCC[C@H](N)C(=O)O; NMeY = CN[C@@H](Cc1ccc(O)cc1)C(=O)O; d3Pal = N[C@H](Cc1cccnc1)C(=O)O

Columns and labels:
[1] = target: T1, SARS-CoV-2 PLpro (nsp3 1564–1878) (Severe acute respiratory syndrome coronavirus 2, UniProt P0DTD1); experiment: biochemical; set-up: FRET-quenched peptide (Pro3) cleavage by PLpro, 10 min pre-incubation, slope over 20 min, normalised to no-compound control; conditions: low concentration screen, read-out: % of control remaining
[2] = target: T1, SARS-CoV-2 PLpro (nsp3 1564–1878); experiment: biochemical; set-up: FRET-quenched peptide (Pro3) cleavage by PLpro, 10 min pre-incubation, slope over 20 min, normalised to no-compound control; conditions: high concentration screen, read-out: % of control remaining

Compound `Cc1cnc(-c2cc(N3CCN(C(=O)CCS(C)(=O)=O)CC3)ncc2Cl)c(C)c1` [PF-5274857 hydrochloride] has a remaining activity at 1.25 µM ([1]; Well no.=5701) of 102% and a remaining activity at 3.75 µM ([2]; Well no.=5701) of 103%.
In the case of `COCc1c(C(C)C)nc(C(C)C)c(/C=C/[C@@H](O)C[C@@H](O)CC(=O)O)c1-c1ccc(F)cc1` [Cerivastatin], the remaining activity at 1.25 µM ([1]; Well no.=1571) is reported as 91.1% and the remaining activity at 3.75 µM ([2]; Well no.=1571) is reported as 93.5%.
Compound `NS(=O)(=O)c1ccc(-n2nc(C(F)(F)F)cc2-c2ccc(Cl)cc2)cc1` [SC-236] has a remaining activity at 1.25 µM ([1]; Well no.=5773) of 110% and a remaining activity at 3.75 µM ([2]; Well no.=5773) of 98%.
Work on `CC(C)(C)c1ccc(S(=O)(=O)NCc2ccc(C(=O)Nc3cccnc3)cc2)cc1` [STF-31] yielded a remaining activity at 1.25 µM ([1]; Well no.=6059) of 94.9% and a remaining activity at 3.75 µM ([2]; Well no.=6059) of 94.5%.
`CCOC(=O)[C@H](Cc1ccc([N+](=O)[O-])cc1)NC(=O)c1ccccc1` [SB 297006] was tested, and the remaining activity at 1.25 µM ([1]; Well no.=5801) was 98.7% and the remaining activity at 3.75 µM ([2]; Well no.=5801) was 98.4%.
Work on `CC(C)Oc1cccnc1N(C)C1CCN(Cc2ccc(I)cc2)CC1` [RBI-257 maleate] yielded a remaining activity at 1.25 µM ([1]; Well no.=1402) of 103% and a remaining activity at 3.75 µM ([2]; Well no.=1402) of 105%.
`COc1cc(C(=O)N(CCCc2ccccc2)Cc2ccc(CC(=O)O)cc2)cc(OC)c1C` [ONO-7300243] showed a remaining activity at 1.25 µM ([1]; Well no.=7711) of 101% and a remaining activity at 3.75 µM ([2]; Well no.=7711) of 103%.
Work on `CCCCc1ccc(C(=O)O)nc1` [Fusaric acid] yielded a remaining activity at 1.25 µM ([1]; Well no.=613) of 98.5% and a remaining activity at 3.75 µM ([2]; Well no.=613) of 99.1%.
Work on `COc1cc(C(=O)O)ccc1NC(=O)[C@@H]1N[C@@H](CC(C)(C)C)[C@](C#N)(c2ccc(Cl)cc2F)[C@H]1c1cccc(Cl)c1F` [Idasanutlin] yielded a remaining activity at 1.25 µM ([1]; Well no.=7114) of 101%, a remaining activity at 1.25 µM ([1]; Well no.=7554) of 92.9% and a remaining activity at 3.75 µM ([2]; Well no.=7114) of 101%. The remaining activity at 3.75 µM ([2]; Well no.=7554) was 93.9%.
Compound `O=C1NCCSc2c1sc1ccc(O)cc21` [kb NB 142-70] has a remaining activity at 1.25 µM ([1]; Well no.=6738) of 92% and a remaining activity at 3.75 µM ([2]; Well no.=6738) of 92.4%.
Work on `C[C@H]1CN(C[C@H](Cc2ccccc2)C(=O)NCC(=O)O)CC[C@@]1(C)c1cccc(O)c1` [Alvimopan (dihydrate)] yielded a remaining activity at 1.25 µM ([1]; Well no.=6559) of 100% and a remaining activity at 3.75 µM ([2]; Well no.=6559) of 101%.
Work on `CC[C@H](C)C(=O)O[C@H]1C[C@H](O)C=C2C=C[C@H](C)[C@H](CC[C@@H](O)C[C@@H](O)CC(=O)O)[C@H]21` [Pravastatin sodium] yielded a remaining activity at 1.25 µM ([1]; Well no.=4889) of 96.4% and a remaining activity at 3.75 µM ([2]; Well no.=4889) of 96.9%.
`C[C@]12CCC(=O)C=C1CC[C@@H]1[C@@H]2CC[C@@]2(C)[C@H]1CC[C@]2(O)C(=O)CO` [Cortexolone] gave a remaining activity at 1.25 µM ([1]; Well no.=1509) of 93.1% and a remaining activity at 3.75 µM ([2]; Well no.=1509) of 93%.
Work on `CN[C@@H](C)C(=O)N[C@H](C(=O)N1CCC[C@H]1C(=O)N[C@H]1c2ccccc2C[C@H]1OCC#CC#CCO[C@@H]1Cc2ccccc2[C@@H]1NC(=O)[C@@H]1CCCN1C(=O)[C@@H](NC(=O)[C@H](C)NC)C1CCCCC1)C1CCCCC1` [AZD5582] yielded a remaining activity at 1.25 µM ([1]; Well no.=6358) of 102%, a remaining activity at 1.25 µM ([1]; Well no.=8416) of 98.4% and a remaining activity at 3.75 µM ([2]; Well no.=6358) of 101%. The remaining activity at 3.75 µM ([2]; Well no.=8416) was 93.5%.
For `O=C(O)CCC(CP(=O)(O)O)C(=O)O` (stereo not drawn) [PMPA tetrasodium], the remaining activity at 1.25 µM ([1]; Well no.=1219) was 105% and the remaining activity at 3.75 µM ([2]; Well no.=1219) was 103%.
Work on `CCCN(CCC)[C@@H]1CCc2ccc(O)cc2C1` [R-(+)-7-Hydroxy-DPAT hydrobromide] yielded a remaining activity at 1.25 µM ([1]; Well no.=428) of 97.2% and a remaining activity at 3.75 µM ([2]; Well no.=428) of 96.9%.
With `O=C1Nc2ccccc2C1=O` [Isatin] the remaining activity at 1.25 µM ([1]; Well no.=8350) was 95.6% and the remaining activity at 3.75 µM ([2]; Well no.=8350) was 95.1%.
`CC(=O)N[C@H](Cc1ccc2ccccc2c1)C(=O)N[C@H](Cc1ccc(Cl)cc1)C(=O)N[C@H](Cc1cccnc1)C(=O)N[C@@H](CO)C(=O)N(C)[C@@H](Cc1ccc(O)cc1)C(=O)N[C@H](CC(N)=O)C(=O)N[C@@H](CC(C)C)C(=O)N[C@@H](CCCCNC(C)C)C(=O)N1CCC[C@H]1C(=O)N[C@H](C)C(N)=O` [Abarelix] (Ac-[d2Nal][dPhe(4-Cl)][d3Pal]S[NMeY][dN]L[Lys(iPr)]P[dA]-NH2) was tested, and the remaining activity at 1.25 µM ([1]; Well no.=6560) was 95.8% and the remaining activity at 3.75 µM ([2]; Well no.=6560) was 98.6%.
In the case of `CCC(NC(C)C)C(O)c1ccc(O)c2[nH]c(=O)ccc12` (stereo not drawn) [Procaterol.HCl], the remaining activity at 1.25 µM ([1]; Well no.=1745) is reported as 99.6% and the remaining activity at 3.75 µM ([2]; Well no.=1745) is reported as 101%.
`CC1(C)S[C@@H]2[C@H](NC(=O)[C@H](N)c3ccc(O)cc3)C(=O)N2[C@H]1C(=O)O` [Amoxicillin (sodium)] gave a remaining activity at 1.25 µM ([1]; Well no.=8274) of 91.5% and a remaining activity at 3.75 µM ([2]; Well no.=8274) of 89.9%.
`COC(=O)[C@@H]1[C@H]2C[C@H]3c4[nH]c5ccccc5c4CCN3C[C@@H]2CC[C@@H]1O` gave a remaining activity at 1.25 µM ([1]; Well no.=3378) of 86.8%, a remaining activity at 3.75 µM ([2]; Well no.=1699) of 103% and a remaining activity at 3.75 µM ([2]; Well no.=3378) of 87.3%.
Compound `Clc1ccc(N/N=C(\c2ccccc2)c2ccccn2)nc1` [(E)-5-chloro-2-(2-(phenyl(pyridin-2-yl)methylene)hydrazinyl)pyridine] has a remaining activity at 1.25 µM ([1]; Well no.=5428) of 91.3% and a remaining activity at 3.75 µM ([2]; Well no.=5428) of 96.4%.
For `N[C@@H](CSSC[C@H](N)C(=O)O)C(=O)O` [L-Cystine], the remaining activity at 1.25 µM ([1]; Well no.=6393) was 104% and the remaining activity at 3.75 µM ([2]; Well no.=6393) was 106%.
`Cc1cc(/C(O)=C2\C(=O)C(=O)N(CCCN3CCOCC3)C2c2ccncc2)ccc1OCc1ccccc1` (stereo not drawn) [SBC-115076] gave a remaining activity at 1.25 µM ([1]; Well no.=7844) of 101% and a remaining activity at 3.75 µM ([2]; Well no.=7844) of 95.8%.
In the case of `Cc1cn([C@@H]2O[C@H](CO)[C@@H](O)[C@H]2O)c(=O)nc1N` [5-Methylcytidine], the remaining activity at 1.25 µM ([1]; Well no.=6585) is reported as 103%, the remaining activity at 1.25 µM ([1]; Well no.=8853) is reported as 100% and the remaining activity at 3.75 µM ([2]; Well no.=6585) is reported as 104%. It also gave a remaining activity at 3.75 µM ([2]; Well no.=8853) of 88.8%.
With `CCn1cnc2c(Nc3cccc(Cl)c3)nc(N[C@@H]3CCCC[C@@H]3N)nc21` [Cdk1 Inhibitor, CGP74514A] the remaining activity at 1.25 µM ([1]; Well no.=2366) was 96.7% and the remaining activity at 3.75 µM ([2]; Well no.=2366) was 96.1%.
Compound `O=C(O)/C=C/C(=O)O` [Fumaric acid] has a remaining activity at 1.25 µM ([1]; Well no.=6539) of 101% and a remaining activity at 3.75 µM ([2]; Well no.=6539) of 82.4%.
Work on `COC(=O)[C@@H]1CC2=CC(=O)CC[C@]2(C)[C@@]23O[C@@H]2C[C@@]2(C)[C@@H](CC[C@@]24CCC(=O)O4)[C@H]13` [Eplerenone] yielded a remaining activity at 1.25 µM ([1]; Well no.=5343) of 97.5% and a remaining activity at 3.75 µM ([2]; Well no.=5343) of 96.5%.
`CC(C)C[C@H](NC(=O)[C@H](O)[C@H](N)Cc1ccccc1)C(=O)O` [Epibestatin hydrochloride] gave a remaining activity at 1.25 µM ([1]; Well no.=692) of 96.8% and a remaining activity at 3.75 µM ([2]; Well no.=692) of 93.6%.
For `CCCC(=O)Oc1ccc2[nH]c(C(=O)c3cc4ccccc4[nH]3)cc2c1` [PDGF Receptor Tyrosine Kinase Inhibitor II], the remaining activity at 1.25 µM ([1]; Well no.=2503) was 101% and the remaining activity at 3.75 µM ([2]; Well no.=2503) was 99.2%.
`Cc1c(C(=O)Nc2cccc(C(F)(F)F)c2)cc(-c2ccccc2)n1CCCN1CCOCC1` [HC-067047] gave a remaining activity at 1.25 µM ([1]; Well no.=5409) of 102% and a remaining activity at 3.75 µM ([2]; Well no.=5409) of 103%.
